Test results taken from patent publication US20240058450A1, “BCL-XL Inhibitory Compounds Having Low Cell Permeability and Antibody Drug Conjugates Including the Same” (AbbVie Inc., priority 2014, published 2024).
Like-named read-outs stand apart in the source and are kept apart here.

Key:
Bcl-xL = Bcl-xL (Homo sapiens, UniProt Q07817); assay: Time Resolved-Fluorescence Resonance Energy Transfer (TR-FRET) binding assay, competition with probe F-Bak
Experimental: Tb-anti-GST antibody was purchased from Invitrogen (Catalog No. PV4216).
For the assay, test compounds were serially diluted in DMSO starting at 50 μM (2× starting concentration; 10% DMSO) and 10 μL transferred into a 384-well plate. 10 μL of a protein/probe/antibody mix was then added to each well at final concentrations listed below:
The samples were then mixed on a shaker for 1 minute and incubated for an additional 2 hours at room temperature. For each assay plate, a probe/antibody and protein/antibody/probe mixture were included as a negative and a positive control, respectively. Fluorescence was measured on the Envision (Perkin Elmer) using a 340/35 nm excitation filter and 520/525 (F-Bak) and 495/510 nm (Tb-labeled anti-his antibody) emission filters. Dissociation constants (Ki) were determined using Wang's equation (Wang, 1995, FEBS Lett. 360:111-114). The TR-FRET assay can be performed in the presence of varying concentrations of human serum (HS) or fetal bovine serum (FBS). Compounds were tested both without HS and in the presence of 1% HS.

[1] = test system: Molt-4 human acute lymphoblastic leukemia cells; assay: Molt-4 cell viability assay (CellTiter-Glo, 48 hours, 10% HS); assay type: cell-based; conditions: Homo sapiens, MOLT-4, 48 h, non-permeabilized cells
Experimental: The ability of Bcl-xL inhibitors that are able to traverse cell membranes to inhibit Bcl-xL can be determined in cell-based killing assays using a variety of cell lines and mouse tumor models. For example, their activity on cell viability can be assessed on a panel of cultured tumorigenic and non-tumorigenic cell lines, as well as primary mouse or human cell populations.
In one exemplary set of conditions, Molt-4 (ATCC, Manassas, VA) human acute lymphoblastic leukemia cells were plated 12,500 cells per well in 384-well tissue culture plates (Corning, Corning, NY) in a total volume of 25 μL tissue culture medium supplemented with 10% human serum (Sigma-Aldrich, St. Louis, MO) and treated with a 3-fold serial dilution of the compounds of interest from 10 μM to 0.0005 μM. Each concentration was tested in duplicate at least 3 separate times. The number of viable cells following 48 hours of compound treatment was determined using the CellTiter-Glo®, Luminescent Cell Viability Assay according to the manufacturer's recommendations (Promega Corp., Madison, WI). Compounds were tested in the presence of 10% HS.

[2] = in the presence of 1% HS, read-out: Bcl-xL Binding Ki (nM, 1% HS)
[3] = without HS, read-out: Bcl-xL Binding Ki

Bcl-xL, sequence (Q07817 whole entry): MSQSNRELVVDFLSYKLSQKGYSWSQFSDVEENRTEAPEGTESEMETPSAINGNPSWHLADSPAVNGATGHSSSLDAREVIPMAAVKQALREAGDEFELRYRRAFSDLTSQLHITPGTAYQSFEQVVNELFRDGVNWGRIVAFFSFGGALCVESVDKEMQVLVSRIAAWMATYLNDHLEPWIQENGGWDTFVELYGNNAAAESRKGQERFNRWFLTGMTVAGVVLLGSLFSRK

Ki (Bcl-xL; [2]) | Ki (Bcl-xL; [3]) | EC50 [1] | SMILES
0.17 nM | < 0.001 nM | 555 nM | Cc1c(-c2ccc(-c3ccc4c(c3)N(C(=O)Nc3nc5ccccc5s3)CCO4)nc2C(=O)O)cnn1CC12CC3(C)CC(C)(C1)CC(OCCNCCS(=O)(=O)O)(C3)C2 [Example 1.51, 6-[4-(1,3-benzothiazol-2-ylcarbamoyl)-3,4-dihydro-2H-1,4-benzoxazin-6-yl]-3-{1-[(3,5-dimethyl-7-{2-[(2-sulfoethyl)amino]ethoxy}tricyclo[3.3.1.1^3,7]dec-1-yl)methyl]-5-methyl-1H-pyrazol-4-yl}pyridine-2-carboxylic acid]
0.275 nM | < 0.01 nM | 193 nM | Cc1c(-c2ccc(-c3ccc4nccc(C(=O)Nc5nc6ccccc6s5)c4c3)nc2C(=O)O)cnn1CC12CC3(C)CC(C)(C1)CC(OCCNCCS(=O)(=O)O)(C3)C2 [Example 1.70, 6-[4-(1,3-benzothiazol-2-ylcarbamoyl)quinolin-6-yl]-3-{1-[(3,5-dimethyl-7-{2-[(2-sulfoethyl)amino]ethoxy}tricyclo[3.3.1.1^3,7]dec-1-yl)methyl]-5-methyl-1H-pyrazol-4-yl}pyridine-2-carboxylic acid]
0.497 nM | < 0.001 nM | 692 nM | Cc1c(-c2ccc(N3CCc4cccc(C(=O)Nc5nc6ccccc6s5)c4C3)nc2C(=O)O)cnn1CC12CC3(C)CC(C)(C1)CC(OCCN(CCNCCS(=O)(=O)O)CCS(=O)(=O)O)(C3)C2 [Example 1.48, 6-[8-(1,3-benzothiazol-2-ylcarbamoyl)-3,4-dihydroisoquinolin-2 (1H)-yl]-3-{1-[(3,5-dimethyl-7-{2-[(2-sulfoethyl){2-[(2-sulfoethyl)amino]ethyl}amino]ethoxy}tricyclo[3.3.1.1^3,7]dec-1-yl)methyl]-5-methyl-1H-pyrazol-4-yl}pyridine-2-carboxylic acid]
0.123 nM | < 0.001 nM | 196 nM | Cc1c(-c2ccc(N3CCc4cccc(C(=O)Nc5nc6ccccc6s5)c4C3)nc2C(=O)O)cnn1CC12CC3(C)CC(C)(C1)CC(OCCNCCCC(=O)O)(C3)C2 [Example 1.56, 6-[8-(1,3-benzothiazol-2-ylcarbamoyl)-3,4-dihydroisoquinolin-2 (1H)-yl]-3-{1-[(3-{2-[(3-carboxypropyl)amino]ethoxy}-5,7-dimethyltricyclo[3.3.1.1^3,7]dec-1-yl)methyl]-5-methyl-1H-pyrazol-4-yl}pyridine-2-carboxylic acid]
0.031 nM |  | 87.7 nM | CNCCOC12CC3(C)CC(C)(CC(Cn4ncc(-c5ccc(N6CCc7c(OCCN)ccc(C(=O)Nc8nc9ccccc9s8)c7C6)nc5C(=O)O)c4C)(C3)C1)C2 [Example 1.34, 6-[5-(2-aminoethoxy)-8-(1,3-benzothiazol-2-ylcarbamoyl)-3,4-dihydroisoquinolin-2 (1H)-yl]-3-[1-({3,5-dimethyl-7-[2-(methylamino)ethoxy]tricyclo[3.3.1.1^3,7]dec-1-yl}methyl)-5-methyl-1H-pyrazol-4-yl]pyridine-2-carboxylic acid]
0.78 nM | 0.053 nM | 355 nM | Cc1c(-c2ccc(N3CCc4cccc(C(=O)Nc5nc6ccccc6s5)c4C3)nc2C(=O)O)cnn1CC12CC3(C)CC(C)(C1)CC(OCCNCC[C@H](O)[C@H](O)CO)(C3)C2 [Example 1.80]
0.18 nM | 0.0011 nM | 23 nM | Cc1c(-c2ccc(N3CCc4cccc(C(=O)Nc5nc6ccccc6s5)c4C3)nc2C(=O)O)cnn1CC12CC3(C)CC(C)(C1)CC(OCCNCCS(=O)(=O)N[C@H]1C(O)O[C@H](CO)[C@@H](O)[C@@H]1O)(C3)C2 (stereo partly drawn) [Example 1.3, 2-{[(2-{[2-({3-[(4-{6-[8-(1,3-benzothiazol-2-ylcarbamoyl)-3,4-dihydroisoquinolin-2 (1H)-yl]-2-carboxypyridin-3-yl}-5-methyl-1H-pyrazol-1-yl)methyl]-5,7-dimethyltricyclo[3.3.1.1^3,7]dec-1-yl)oxy)ethyl]amino)ethyl)sulfonyl]amino}-2-deoxy-D-glucopyranose]
0.32 nM | < 0.01 nM | 346 nM | Cc1c(-c2ccc(-c3ccc4cccc(C(=O)Nc5nc6ccccc6s5)c4c3)nc2C(=O)O)cnn1CC12CC3(C)CC(C)(C1)CC(OCCNCCC(=O)O)(C3)C2 [Example 1.68, 6-[8-(1,3-benzothiazol-2-ylcarbamoyl)naphthalen-2-yl]-3-(1-[(3-{2-[(2-carboxyethyl)amino]ethoxy}-5,7-dimethyltricyclo[3.3.1.1^3,7]dec-1-yl)methyl]-5-methyl-1H-pyrazol-4-yl}pyridine-2-carboxylic acid]
0.055 nM | < 0.001 nM | 446 nM | CNCCOC12CC3(C)CC(C)(CC(Cn4ncc(-c5ccc(N6CCc7c(OCCCP(=O)(O)O)ccc(C(=O)Nc8nc9ccccc9s8)c7C6)nc5C(=O)O)c4C)(C3)C1)C2 [Example 1.31, 6-[8-(1,3-benzothiazol-2-ylcarbamoyl)-5-(3-phosphonopropoxy)-3,4-dihydroisoquinolin-2 (1H)-yl]-3-[1-({3,5-dimethyl-7-[2-(methylamino)ethoxy]tricyclo[3.3.1.1^3,7]dec-1-yl}methyl)-5-methyl-1H-pyrazol-4-yl]pyridine-2-carboxylic acid]
0.097 nM | < 0.001 nM | 255 nM | Cc1c(-c2ccc(N3CCc4cccc(C(=O)Nc5nc6ccccc6s5)c4C3)nc2C(=O)O)cnn1CC12CC3(C)CC(C)(C1)CC(OCCN(CCCN)CCS(=O)(=O)O)(C3)C2 [Example 1.61, 3-{1-[(3-{2-[(3-aminopropyl)(2-sulfoethyl)amino]ethoxy}-5,7-dimethyltricyclo[3.3.1.1^3,7]dec-1-yl)methyl]-5-methyl-1H-pyrazol-4-yl}-6-[8-(1,3-benzothiazol-2-ylcarbamoyl)-3,4-dihydroisoquinolin-2 (1H)-yl]pyridine-2-carboxylic acid]
0.051 nM | 0.0073 nM | 2770 nM | Cc1c(-c2ccc(N3CCc4cccc(C(=O)Nc5nc6ncccc6s5)c4C3)nc2C(=O)O)cnn1CC12CC3(C)CC(C)(C1)CC(OCCN(CCCP(=O)(O)O)C1CCNCC1)(C3)C2 [Example 1.50, 3-{1-[(3,5-dimethyl-7-{2-[(3-phosphonopropyl)(piperidin-4-yl)amino]ethoxy)tricyclo[3.3.1.1^3,7]dec-1-yl)methyl]-5-methyl-1H-pyrazol-4-yl}-6-[8-([1,3]thiazolo[4,5-b]pyridin-2-ylcarbamoyl)-3,4-dihydroisoquinolin-2 (1H)-yl]pyridine-2-carboxylic acid]
0.294 nM | < 0.001 nM | 805 nM | Cc1c(-c2ccc(N3CCc4cccc(C(=O)Nc5nc6ccccc6s5)c4C3)nc2C(=O)O)cnn1CC12CC3(C)CC(C)(C1)CC(OCCN(CCS(=O)(=O)O)C(=O)[C@@H](N)CS(=O)(=O)O)(C3)C2 [Example 1.37, 6-[8-(1,3-benzothiazol-2-ylcarbamoyl)-3,4-dihydroisoquinolin-2 (1H)-yl]-3-{1-[(3,5-dimethyl-7-{2-[(3-sulfo-L-alanyl)(2-sulfoethyl)amino]ethoxy}tricyclo[3.3.1.1^3,7]dec-1-yl)methyl]-5-methyl-1H-pyrazol-4-yl}pyridine-2-carboxylic acid]
0.66 nM | 0.031 nM | 178 nM | Cc1c(-c2ccc(N3CCc4cccc(C(=O)Nc5nc6ccccc6s5)c4C3)nc2C(=O)O)cnn1CC12CC3(C)CC(C)(C1)CC(OCCNS(=O)(=O)CCCNC(CO)CO)(C3)C2 [Example 1.83]
< 0.01 nM | < 0.01 nM | 2.22 nM | Cc1c(-c2ccc(-c3ccc4cncc(C(=O)Nc5nc6ccccc6s5)c4c3)nc2C(=O)O)cnn1CC12CC3(C)CC(C)(C1)CC(OCCNCCS(=O)(=O)O)(C3)C2 [Example 1.78, 6-[4-(1,3-benzothiazol-2-ylcarbamoyl)isoquinolin-6-yl]-3-{1-[(3,5-dimethyl-7-(2-[(2-sulfoethyl)amino]ethoxy}tricyclo[3.3.1.1^3,7]dec-1-yl)methyl]-5-methyl-1H-pyrazol-4-yl}pyridine-2-carboxylic acid]
< 0.01 nM | < 0.01 nM | 5.25 nM | Cc1c(-c2ccc(-c3ccc4c(c3)N(C(=O)Nc3nc5ccccc5s3)CCC4)nc2C(=O)O)cnn1CC12CC3(C)CC(C)(C1)CC(OCCN(C)CCCN)(C3)C2 [Example 1.64, 3-{1-[(3-{2-[(3-aminopropyl)(methyl)amino]ethoxy}-5,7-dimethyltricyclo[3.3.1.1^3,7]dec-1-yl)methyl]-5-methyl-1H-pyrazol-4-yl)-6-[1-(1,3-benzothiazol-2-ylcarbamoyl)-1,2,3,4-tetrahydroquinolin-7-yl]pyridine-2-carboxylic acid]
